We go through 13 molecules from paper PMC10249096, “Design, Synthesis, and Evaluation of a New Series of Hydrazones as Small-Molecule Akt Inhibitors for NSCLC Therapy” (ACS Omega, 2023).

Where two headings read alike, the source gives them in different places.

For data set [1], the system named is L929 mouse embryonic fibroblast cells. As to the kind of experiment: MTT test, cytotoxicity on L929 cells. It is filed as cell-based. To be noted: mean ± SD, triplicate, read-out: IC50 L929 cell line. Here is the method:
(§1) A549 and L929 cell lines were purchased from American Type Culture Collection (Manassas, VA, USA). Cells were cultured, and drug treatments were performed as previously explained.[46]
(§2) MTT assay was conducted as previously described[47] with slight modifications.[48] Cisplatin was used as a positive control. The assay was performed in triplicate. Half-maximal inhibitory concentration (IC50) data (μM) were expressed as mean ± SD.
Background: Tetrazolium assays rely on reduction of a dye to a coloured formazan, in cell work by metabolically active cells.

The test system of data set [2] is A549 human lung adenocarcinoma cells. As to the kind of experiment: MTT test, cytotoxicity on A549 cells. In kind it is cell-based. To be noted: triplicate, read-out: IC50 A549 cell line. Here is the method:
as §1, §2

The test system of a further data set is Akt. As to the kind of experiment: Akt Colorimetric In-Cell ELISA, Akt inhibition in A549 cells. It is filed as cell-based, human. As to conditions: 24 h; for IC50: A549 cell line, mean ± SD, triplicate, read-out: Akt inhibitory effect IC50. As to the method: The assay was performed in triplicate. IC50 data (μM) were expressed as mean ± SD.
In general terms: In an ELISA, binding on a coated surface is turned into a signal by an enzyme label.

The next data set has as its system A549 cells. As to the kind of experiment: Annexin V FITC/PI flow cytometric analysis of apoptosis. As to conditions: 24 h, each agent at its IC50 (3a 91.35, 3e 176.23, 3g 46.60, 3i 83.59, cisplatin 23.89 μM). Background: A flow cytometer gives signals particle by particle.

Take `O=C(CSc1nc2cc(Cl)ccc2o1)NN=Cc1ccc(N2CCOCC2)cc1` [Compound 3f, N′-[4-(Morpholin-4-yl)benzylidene]-2-[(5-chlorobenzoxazol-2-yl)thio]acetohydrazide]: the melting point (usually the temperature, or range, at which the solid turns liquid) was 209 to 210 °C. The concentration for half-maximal inhibition (IC50) (in general, the concentration needed to halve the response being measured) in data set [1] is over 500 µM. Besides, the IC50 in data set [2] (Homo sapiens, A549, mean ± SD) worked out at 251 ± 45.9 µM.

As to `CCn1c(-c2nonc2N)nc2c(C#CC(C)(C)O)ncc(OC[C@H]3CCCNC3)c21` [GSK690693, reference compound], in the data set with Akt, the IC50 was determined as 5.93 ± 1.2 µM.

`CN(C)c1ccc(C=NNC(=O)CSc2nc3cc(Cl)ccc3o2)cc1` [Compound 3a, N′-(4-Dimethylaminobenzylidene)-2-[(5-chlorobenzoxazol-2-yl)thio]acetohydrazide] yielded a melting point of 197 to 199 °C. Further, in data set [1], the IC50 is over 500 µM. For the same molecule, in the data set on A549 cells, the “early apoptosis (%)” value was found to be 11.22%, the “late apoptosis (%)” value was 4.97% and the “necrosis (%)” value stood at 0.79%. In addition, the Akt inhibition in the data set on Akt (A549 cells, at 91.35 μM) is reported as 35.40 ± 13.36%. Besides, the IC50 in data set [2] (Homo sapiens, A549, mean ± SD) worked out at 91.4 ± 21.9 µM.

Regarding `O=C(CSc1nc2cc(Cl)ccc2o1)NN=Cc1ccc(N2CCCCC2)cc1` [Compound 3e, N′-[4-(Piperidin-1-yl)benzylidene]-2-[(5-chlorobenzoxazol-2-yl)thio]acetohydrazide], the IC50 in data set [1] is over 500 µM. Besides, in the data set on A549 cells, the “early apoptosis (%)” value is on record as 3.26%, the “late apoptosis (%)” value was determined as 1.76% and the “necrosis (%)” value worked out at 3.79%. The half-inhibitory concentration (IC50) with Akt came to 106 ± 53.7 µM. The IC50 in data set [2] (Homo sapiens, A549, mean ± SD) was found to be 176 ± 56.5 µM.

The molecule `NNC(=O)CSc1nc2cc(Cl)ccc2o1` [Compound 2, 2-[(5-Chlorobenzoxazol-2-yl)thio]acetohydrazide] showed a melting point of 159 to 161 °C. The IC50 in data set [1] is over 500 µM. Besides, the half-inhibitory concentration (IC50) in data set [2] (Homo sapiens, A549, mean ± SD) is over 500 µM.

For `CCN(CC)c1ccc(C=NNC(=O)CSc2nc3cc(Cl)ccc3o2)cc1` [Compound 3b, N′-(4-Diethylaminobenzylidene)-2-[(5-chlorobenzoxazol-2-yl)thio]acetohydrazide], the melting point was in the range of 172 to 173 °C. Moreover, in data set [1], the IC50 was over 500 µM. Besides, in data set [2] (Homo sapiens, A549, mean ± SD), the IC50 worked out at 410 ± 220 µM.

As for `N.N.[Cl][Pt][Cl]` [Cisplatin, reference compound], in the data set with A549 cells, the “early apoptosis (%)” value was found to be 3.61%, the “late apoptosis (%)” value came to 3.14% and the “necrosis (%)” value is on record as 0.98%. Further, the 50% inhibitory concentration (IC50) with Akt was found to be 8.09 ± 0.63 µM. Moreover, the IC50 in data set [2] (mean ± SD) was 23.9 ± 2.71 µM.

Molecule `O=C(CSc1nc2cc(Cl)ccc2o1)NN=Cc1ccc(N2CCCC2)cc1` [Compound 3h, N′-[4-(Pyrrolidin-1-yl)benzylidene]-2-[(5-chlorobenzoxazol-2-yl)thio]acetohydrazide] gave a melting point of 206 to 207 °C. Besides, the IC50 in data set [1] was over 500 µM. For the same molecule, in data set [2] (Homo sapiens, A549, mean ± SD), the IC50 is over 500 µM.

`O=C(CSc1nc2cc(Cl)ccc2o1)NN=Cc1ccc([N+](=O)[O-])cc1` [Compound 3d, N′-(4-Nitrobenzylidene)-2-[(5-chlorobenzoxazol-2-yl)thio]acetohydrazide] showed a melting point of 237 to 239 °C. Moreover, the IC50 in data set [1] is over 500 µM. Moreover, the IC50 in data set [2] (Homo sapiens, A549, mean ± SD) was over 500 µM.

Molecule `O=C(CSc1nc2cc(Cl)ccc2o1)NN=Cc1ccc(-n2cncn2)cc1` [Compound 3j, N′-[4-(1H-1,2,4-Triazol-1-yl)benzylidene]-2-[(5-chlorobenzoxazol-2-yl)thio]acetohydrazide] came in with a melting point of 256 to 257 °C. Also, the IC50 in data set [1] is over 500 µM. Further, the IC50 in data set [2] (Homo sapiens, A549, mean ± SD) was over 500 µM.

In the case of `CN1CCN(c2ccc(C=NNC(=O)CSc3nc4cc(Cl)ccc4o3)cc2)CC1` [Compound 3g, N′-[4-(4-Methylpiperazin-1-yl)benzylidene]-2-[(5-chlorobenzoxazol-2-yl)thio]acetohydrazide], the melting point lay within 178 to 179 °C. Besides, the IC50 in data set [1] was 277 ± 28.9 µM. Besides, in the data set with A549 cells, the “early apoptosis (%)” value is on record as 7.13%, the “late apoptosis (%)” value is 12.17% and the “necrosis (%)” value worked out at 0.78%. For the same molecule, in the data set with Akt (A549 cells, 11.65, 23.30 and 46.60 μM), the “inhibitory effect on Akt (in words)” value is listed as “did not exert any inhibitory effect”. For the same molecule, the IC50 in data set [2] (Homo sapiens, A549, mean ± SD) turned out to be 46.6 ± 6.15 µM.

In the case of `O=C(CSc1nc2cc(Cl)ccc2o1)NN=Cc1ccc(N(CCCl)CCCl)cc1` [Compound 3c, N′-[4-(Bis(2-chloroethyl)amino)benzylidene]-2-[(5-chlorobenzoxazol-2-yl)thio]acetohydrazide], the melting point was 155 to 156 °C. Besides, in data set [1], the IC50 was over 500 µM. Besides, the IC50 in data set [2] (Homo sapiens, A549, mean ± SD) is over 500 µM.

In the case of `O=C(CSc1nc2cc(Cl)ccc2o1)NN=Cc1ccc(-n2ccnc2)cc1` [Compound 3i, N′-[4-(1H-Imidazol-1-yl)benzylidene]-2-[(5-chlorobenzoxazol-2-yl)thio]acetohydrazide], the melting point was in the range of 229 to 231 °C. In addition, the IC50 in data set [1] is over 500 µM. Besides, in the data set with A549 cells, the “early apoptosis (%)” value came to 2.70%, the “late apoptosis (%)” value is recorded as 6.04% and the “necrosis (%)” value was 3.51%. The IC50 with Akt is 69.5 ± 1.48 µM. Moreover, in data set [2] (Homo sapiens, A549, mean ± SD), the IC50 was determined as 83.6 ± 7.3 µM.
